Assay results: paper PMC5218480 (PLoS ONE, 2017)

Tested on: MV-4-11 cells
Test: Gene expression microarray analysis (Affymetrix PrimeView) and GSEA
Type: cell-based, human
Parameters: RFU PODN (11730768_x_at) / Fold change /veh PODN (11730768_x_at) / RFU LINC00158 (11744669_a_at) / Fold change /veh LINC00158 (11744669_a_at) / RFU DUSP10 (11751237_a_at) / Fold change /veh DUSP10 (11751237_a_at) / RFU ID3 (11757404_x_at) / Fold change /veh ID3 (11757404_x_at) / RFU PLEKHG5 (11737974_s_at) / Fold change /veh PLEKHG5 (11737974_s_at) / RFU LRRC4B (11730491_at) / Fold change /veh LRRC4B (11730491_at) / RFU GIMAP4 (11747438_a_at) / Fold change /veh GIMAP4 (11747438_a_at) / RFU KRT8 (11758183_x_at) / Fold change /veh KRT8 (11758183_x_at) / RFU CNN1 (11734310_a_at) / Fold change /veh CNN1 (11734310_a_at) / RFU VPS37D (11726825_at) / Fold change /veh VPS37D (11726825_at) / RFU C10orf10 (11716522_x_at) / Fold change /veh C10orf10 (11716522_x_at) / RFU KIR2DL2 /// KIR2DL4 /// KIR2DL5A /// KIR2DL5B /// KIR2DS1 /// KIR2DS2 /// KIR2DS3 /// KIR2DS4 /// KIR3DL3 /// KIR3DL3 /// KIR3DS1 (11738374_at) / Fold change /veh KIR2DL2 /// KIR2DL4 /// KIR2DL5A /// KIR2DL5B /// KIR2DS1 /// KIR2DS2 /// KIR2DS3 /// KIR2DS4 /// KIR3DL3 /// KIR3DL3 /// KIR3DS1 (11738374_at) / RFU C1QL1 (11718748_at) / Fold change /veh C1QL1 (11718748_at) / RFU TMPRSS4 (11747572_a_at) / Fold change /veh TMPRSS4 (11747572_a_at) / RFU HAMP (11756126_x_at) / Fold change /veh HAMP (11756126_x_at) / RFU RNFT2 (11725882_a_at) / Fold change /veh RNFT2 (11725882_a_at) / RFU NR4A2 (11747474_a_at) / Fold change /veh NR4A2 (11747474_a_at) / RFU ABCC12 (11746883_a_at) / Fold change /veh ABCC12 (11746883_a_at) / RFU TMEM136 (11760407_x_at) / Fold change /veh TMEM136 (11760407_x_at) / RFU CLDN22 /// WWC2 (11732394_at) / Fold change /veh CLDN22 /// WWC2 (11732394_at) / RFU HLA-DPB1 (11760878_x_at) / Fold change /veh HLA-DPB1 (11760878_x_at) / RFU SPINT1 (11716480_a_at) / Fold change /veh SPINT1 (11716480_a_at) / RFU GAP43 (11754022_s_at) / Fold change /veh GAP43 (11754022_s_at) / RFU A4GNT (11735810_at) / Fold change /veh A4GNT (11735810_at) / RFU PRB3 (11715151_x_at) / Fold change /veh PRB3 (11715151_x_at) / RFU TUBB4B (11761932_at) / Fold change /veh TUBB4B (11761932_at) / RFU CAPN14 (11732068_a_at) / Fold change /veh CAPN14 (11732068_a_at) / RFU TMCC2 (11721928_a_at) / Fold change /veh TMCC2 (11721928_a_at) / RFU IRGQ (11745062_a_at) / Fold change /veh IRGQ (11745062_a_at) / RFU FAM174B (11720279_a_at) / Fold change /veh FAM174B (11720279_a_at) / RFU TMPRSS4 (11748680_a_at) / Fold change /veh TMPRSS4 (11748680_a_at) / RFU FAM212B (11763350_a_at) / Fold change /veh FAM212B (11763350_a_at) / RFU PLEKHG5 (11743358_a_at) / Fold change /veh PLEKHG5 (11743358_a_at) / RFU ZSCAN30 (11745921_a_at) / Fold change /veh ZSCAN30 (11745921_a_at) / RFU CMKLR1 (11741424_a_at) / Fold change /veh CMKLR1 (11741424_a_at) / RFU LOC101060620 /// MAPK8IP1 (11723275_at) / Fold change /veh LOC101060620 /// MAPK8IP1 (11723275_at) / RFU SPTSSB (11747773_x_at) / Fold change /veh SPTSSB (11747773_x_at) / RFU PRSS12 (11739890_at) / Fold change /veh PRSS12 (11739890_at) / RFU BIN1 (11741810_x_at) / Fold change /veh BIN1 (11741810_x_at) / RFU WNT11 (11732464_a_at) / Fold change /veh WNT11 (11732464_a_at) / RFU C10orf10 (11716521_a_at) / Fold change /veh C10orf10 (11716521_a_at) / RFU C5orf56 (11738089_at) / Fold change /veh C5orf56 (11738089_at) / RFU CYB561 (11721691_x_at) / Fold change /veh CYB561 (11721691_x_at) / RFU ANKRD19P (11752326_a_at) / Fold change /veh ANKRD19P (11752326_a_at) / RFU OR2T12 /// OR2T33 /// OR2T8 (11738714_s_at) / Fold change /veh OR2T12 /// OR2T33 /// OR2T8 (11738714_s_at) / RFU VCAN (11748164_a_at) / Fold change /veh VCAN (11748164_a_at) / RFU JSRP1 (11732532_at) / Fold change /veh JSRP1 (11732532_at) / RFU KRTAP10-11 (11738290_x_at) / Fold change /veh KRTAP10-11 (11738290_x_at) / RFU MYO3A (11730013_a_at) / Fold change /veh MYO3A (11730013_a_at) / RFU EBF3 (11725865_a_at) / Fold change /veh EBF3 (11725865_a_at) / RFU CAMK2N1 (11719241_x_at) / Fold change /veh CAMK2N1 (11719241_x_at) / RFU C5orf56 (11738088_a_at) / Fold change /veh C5orf56 (11738088_a_at) / RFU OLFML3 (11715873_a_at) / Fold change /veh OLFML3 (11715873_a_at) / RFU LOC100653217 /// NTM (11731650_a_at) / Fold change /veh LOC100653217 /// NTM (11731650_a_at) / RFU MAPK11 (11762145_a_at) / Fold change /veh MAPK11 (11762145_a_at) / RFU FIZ1 (11724087_x_at) / Fold change /veh FIZ1 (11724087_x_at) / RFU OASL (11726364_x_at) / Fold change /veh OASL (11726364_x_at) / RFU SOX15 (11748057_x_at) / Fold change /veh SOX15 (11748057_x_at) / RFU CD79A (11719716_a_at) / Fold change /veh CD79A (11719716_a_at) / RFU HIST1H1D (11736915_at) / Fold change /veh HIST1H1D (11736915_at) / RFU CASKIN2 (11723855_a_at) / Fold change /veh CASKIN2 (11723855_a_at) / RFU LOC730098 (11760151_x_at) / Fold change /veh LOC730098 (11760151_x_at) / RFU OR4N2 (11742367_at) / Fold change /veh OR4N2 (11742367_at) / RFU PRRT2 (11749266_a_at) / Fold change /veh PRRT2 (11749266_a_at) / RFU SNX32 (11753110_a_at) / Fold change /veh SNX32 (11753110_a_at) / RFU CDHR5 (11726645_a_at) / Fold change /veh CDHR5 (11726645_a_at) / RFU RCAN1 (11760418_a_at) / Fold change /veh RCAN1 (11760418_a_at) / RFU FAM167A (11723789_a_at) / Fold change /veh FAM167A (11723789_a_at) / RFU FAM26E (11764081_at) / Fold change /veh FAM26E (11764081_at) / RFU ISYNA1 (11749810_s_at) / Fold change /veh ISYNA1 (11749810_s_at) / RFU ACY1 (11761880_at) / Fold change /veh ACY1 (11761880_at) / RFU 11764098_at / Fold change /veh 11764098_at / RFU SAMD14 (11745864_x_at) / Fold change /veh SAMD14 (11745864_x_at) / RFU NPB (11741838_a_at) / Fold change /veh NPB (11741838_a_at) / RFU TMPRSS6 (11731388_a_at) / Fold change /veh TMPRSS6 (11731388_a_at) / RFU KRTAP10-2 (11738614_at) / Fold change /veh KRTAP10-2 (11738614_at) / RFU ARHGAP8 /// PRR5-ARHGAP8 (11727945_x_at) / Fold change /veh ARHGAP8 /// PRR5-ARHGAP8 (11727945_x_at) / RFU KRTAP5-7 /// NADSYN1 (11734609_at) / Fold change /veh KRTAP5-7 /// NADSYN1 (11734609_at) / RFU RASL12 (11751679_a_at) / Fold change /veh RASL12 (11751679_a_at) / RFU CDKN2B (11736163_a_at) / Fold change /veh CDKN2B (11736163_a_at) / RFU PRF1 (11729649_at) / Fold change /veh PRF1 (11729649_at) / RFU, ZNF638 /// ZNF638-IT1 / Fold change vs veh, ZNF638 /// ZNF638-IT1 / RFU, PANK3 / Fold change vs veh, PANK3 / RFU, SH3YL1 / Fold change vs veh, SH3YL1 / RFU, ZEB2 / Fold change vs veh, ZEB2 / RFU, NRIP1 / Fold change vs veh, NRIP1 / RFU, PTTG1IP / Fold change vs veh, PTTG1IP / RFU, CAPN2 / Fold change vs veh, CAPN2 / RFU, MED14 / Fold change vs veh, MED14 / RFU, SNORA58 / Fold change vs veh, SNORA58 / RFU, C1orf63 / Fold change vs veh, C1orf63 / RFU, LRRFIP1 / Fold change vs veh, LRRFIP1 / RFU, NDUFAF7 / Fold change vs veh, NDUFAF7 / RFU, SLC12A2 / Fold change vs veh, SLC12A2 / RFU, IBTK / Fold change vs veh, IBTK / RFU, ESF1 / Fold change vs veh, ESF1 / Fold change vs veh, TMEM50B / RFU, TAOK1 / Fold change vs veh, TAOK1 / RFU, ACBD3 / Fold change vs veh, ACBD3 / RFU, TMA16 / Fold change vs veh, TMA16 / RFU, RWDD3 / Fold change vs veh, RWDD3 / RFU, BCAT1 / Fold change vs veh, BCAT1 / RFU, EDEM3 / Fold change vs veh, EDEM3 / RFU, TMEM33 / Fold change vs veh, TMEM33 / RFU, WDR75 / Fold change vs veh, WDR75 / RFU, AHCTF1 / Fold change vs veh, AHCTF1 / RFU, TFRC / Fold change vs veh, TFRC / RFU, ZDHHC17 / Fold change vs veh, ZDHHC17 / RFU, NOM1 / Fold change vs veh, NOM1 / RFU, ARL8B / Fold change vs veh, ARL8B / RFU, ZBTB11 / Fold change vs veh, ZBTB11 / RFU, TAMM41 / Fold change vs veh, TAMM41 / RFU, KIAA1704 /// LOC100996395 / Fold change vs veh, KIAA1704 /// LOC100996395 / RFU, ING1 / Fold change vs veh, ING1 / RFU, TRMT61B / Fold change vs veh, TRMT61B / RFU, FUBP3 / Fold change vs veh, FUBP3 / RFU, TP53 / Fold change vs veh, TP53 / RFU, TNKS2 / Fold change vs veh, TNKS2 / RFU, ZFP14 / Fold change vs veh, ZFP14 / RFU, ACTR2 / Fold change vs veh, ACTR2 / RFU, PPP3R1 / Fold change vs veh, PPP3R1 / RFU, PIK3R1 / Fold change vs veh, PIK3R1 / RFU, HNRNPA1 / Fold change vs veh, HNRNPA1 / RFU, RNF170 / Fold change vs veh, RNF170 / RFU, ZNF28 / Fold change vs veh, ZNF28 / RFU, RNGTT / Fold change vs veh, RNGTT / RFU, OGT / Fold change vs veh, OGT / RFU, BRD1 / Fold change vs veh, BRD1 / RFU, MARS / Fold change vs veh, MARS / RFU, ZNF655 / Fold change vs veh, ZNF655 / RFU, FAHD1 / Fold change vs veh, FAHD1 / RFU, BDP1 / Fold change vs veh, BDP1 / RFU, LRRCC1 / Fold change vs veh, LRRCC1 / RFU, ARID1A / Fold change vs veh, ARID1A / RFU, ZNF146 / Fold change vs veh, ZNF146 / RFU, ZNF330 / Fold change vs veh, ZNF330 / RFU, GPN3 / Fold change vs veh, GPN3 / RFU, C9orf123 / Fold change vs veh, C9orf123 / RFU, N4BP2L2 / Fold change vs veh, N4BP2L2 / RFU, ARFIP1 / Fold change vs veh, ARFIP1 / RFU, FAM179B / Fold change vs veh, FAM179B / RFU, BCL10 / Fold change vs veh, BCL10 / RFU, UHRF1BP1L / Fold change vs veh, UHRF1BP1L / RFU, BET1 / Fold change vs veh, BET1 / RFU, CNOT2 / Fold change vs veh, CNOT2 / RFU, ZNF268 / Fold change vs veh, ZNF268 / Fold change vs veh, ZNF507 / RFU, DGCR2 / Fold change vs veh, DGCR2 / RFU, WDSUB1 / Fold change vs veh, WDSUB1 / Fold change vs veh, HSP90B1 /// MIR3652 / RFU, ADSS / Fold change vs veh, ADSS / RFU, GK / Fold change vs veh, GK / RFU, ZNF148 / Fold change vs veh, ZNF148 / RFU, TAF9 / Fold change vs veh, TAF9 / RFU, SLC1A5 / Fold change vs veh, SLC1A5 / RFU, SLMO2 / Fold change vs veh, SLMO2 / RFU, ABCC4 / Fold change vs veh, ABCC4 / RFU, LOC101060439 /// RAP1B / Fold change vs veh, LOC101060439 /// RAP1B / RFU, RFX7 / Fold change vs veh, RFX7 / RFU, GTPBP10 / Fold change vs veh, GTPBP10 / RFU, CNEP1R1 / Fold change vs veh, CNEP1R1 / RFU, BIVM-ERCC5 /// ERCC5 / Fold change vs veh, BIVM-ERCC5 /// ERCC5 / RFU, ILF3 / Fold change vs veh, ILF3 / RFU 11762660_at / Fold change /veh 11762660_at / RFU VCAN (11757783_s_at) / Fold change /veh VCAN (11757783_s_at) / RFU DDX43 (11728927_at) / Fold change /veh DDX43 (11728927_at) / RFU KRT8 (11758188_x_at) / Fold change /veh KRT8 (11758188_x_at) / RFU NKD1 (11759106_at) / Fold change /veh NKD1 (11759106_at) / RFU SRD5A1 (11742802_a_at) / Fold change /veh SRD5A1 (11742802_a_at) / RFU TPSAB1 /// TPSB2 (11721975_s_at) / Fold change /veh TPSAB1 /// TPSB2 (11721975_s_at) / RFU GSTM3 (11746129_a_at) / Fold change /veh GSTM3 (11746129_a_at) / RFU IL23R (11737362_x_at) / Fold change /veh IL23R (11737362_x_at) / RFU TMEM51 (11727254_a_at) / Fold change /veh TMEM51 (11727254_a_at) / RFU PIWIL2 (11732686_x_at) / Fold change /veh PIWIL2 (11732686_x_at) / RFU ORM1 (11744905_x_at) / Fold change /veh ORM1 (11744905_x_at) / RFU CCDC152 (11743942_at) / Fold change /veh CCDC152 (11743942_at) / RFU ECM1 (11717891_a_at) / Fold change /veh ECM1 (11717891_a_at) / RFU IL23R (11748794_a_at) / Fold change /veh IL23R (11748794_a_at) / RFU TNFAIP8L3 (11732012_x_at) / Fold change /veh TNFAIP8L3 (11732012_x_at) / RFU MBOAT4 (11741988_at) / Fold change /veh MBOAT4 (11741988_at) / RFU 11764193_at / Fold change /veh 11764193_at / RFU TMEM53 (11763286_at) / Fold change /veh TMEM53 (11763286_at) / RFU MAGEB2 (11727129_at) / Fold change /veh MAGEB2 (11727129_at) / RFU TMEM200A (11744735_a_at) / Fold change /veh TMEM200A (11744735_a_at) / RFU CCDC152 (11751479_a_at) / Fold change /veh CCDC152 (11751479_a_at) / RFU FAM211A (11726209_a_at) / Fold change /veh FAM211A (11726209_a_at) / RFU RGS16 (11746705_a_at) / Fold change /veh RGS16 (11746705_a_at) / RFU VCAN (11755009_s_at) / Fold change /veh VCAN (11755009_s_at) / RFU RHOB (11743442_s_at) / Fold change /veh RHOB (11743442_s_at) / RFU RGS16 (11720943_a_at) / Fold change /veh RGS16 (11720943_a_at) / RFU RGS16 (11720944_at) / Fold change /veh RGS16 (11720944_at) / RFU, VPS4B / Fold change vs veh, VPS4B / RFU, CREB1 / Fold change vs veh, CREB1 / RFU, DNAJC13 / Fold change vs veh, DNAJC13 / RFU, GNAQ / Fold change vs veh, GNAQ / RFU, CDK5R1 / Fold change vs veh, CDK5R1 / RFU, ZRANB3 / Fold change vs veh, ZRANB3 / RFU, CUL4A / Fold change vs veh, CUL4A / RFU, CCNY / Fold change vs veh, CCNY / RFU, UFL1 / Fold change vs veh, UFL1 / RFU, COG3 / Fold change vs veh, COG3 / RFU, DIAPH2 / Fold change vs veh, DIAPH2 / RFU, SKA2 / Fold change vs veh, SKA2 / RFU, AFF3 / Fold change vs veh, AFF3 / RFU, LMF1 / Fold change vs veh, LMF1 / RFU, IPO11 / Fold change vs veh, IPO11 / RFU, DFFB / Fold change vs veh, DFFB / RFU, FOXP1 / Fold change vs veh, FOXP1 / RFU, CARD8 / Fold change vs veh, CARD8 / RFU, STRN3 / Fold change vs veh, STRN3 / RFU, ADK / Fold change vs veh, ADK / RFU, RASSF2 / Fold change vs veh, RASSF2 / RFU, WIPF1 / Fold change vs veh, WIPF1 / RFU, LARP1B / Fold change vs veh, LARP1B / RFU, RASA1 / Fold change vs veh, RASA1 / RFU, RB1 / Fold change vs veh, RB1 / RFU, PPFIA1 / Fold change vs veh, PPFIA1 / RFU, MAT2A / Fold change vs veh, MAT2A / RFU, CCT5 / Fold change vs veh, CCT5 / RFU, WDR92 / Fold change vs veh, WDR92 / RFU, CUX1 / Fold change vs veh, CUX1 / RFU, TTC7A / Fold change vs veh, TTC7A / RFU, TMEM135 / Fold change vs veh, TMEM135 / RFU, DEPTOR / Fold change vs veh, DEPTOR / RFU, CPM / Fold change vs veh, CPM / RFU, DNAJB6 / Fold change vs veh, DNAJB6 / RFU, CACNA2D3 / Fold change vs veh, CACNA2D3 / RFU, DTX4 / Fold change vs veh, DTX4 / RFU, TFCP2 / Fold change vs veh, TFCP2 / RFU, GMCL1 /// GMCL1P1 / Fold change vs veh, GMCL1 /// GMCL1P1 / RFU, AEBP2 / Fold change vs veh, AEBP2 / RFU, SNHG1 /// SNORD22 /// SNORD25 /// SNORD26 /// SNORD27 /// SNORD28 /// SNORD29 /// SNORD31 / Fold change vs veh, SNHG1 /// SNORD22 /// SNORD25 /// SNORD26 /// SNORD27 /// SNORD28 /// SNORD29 /// SNORD31 / Fold change (Aza/veh), C12orf56 (ProbeSet 11735607_a_at) / Fold change (ACY-1035/veh), C12orf56 (ProbeSet 11735607_a_at) / Fold change (Aza/veh), FGFR1OP (ProbeSet 11751329_s_at) / Fold change (ACY-1035/veh), FGFR1OP (ProbeSet 11751329_s_at) / Fold change (Aza/veh), VPS36 (ProbeSet 11739960_a_at) / Fold change (ACY-1035/veh), VPS36 (ProbeSet 11739960_a_at) / RFU SYPL1 (11715823_x_at) / Fold change /veh SYPL1 (11715823_x_at) / RFU IGFBP7 (11715501_s_at) / Fold change /veh IGFBP7 (11715501_s_at) / RFU REEP3 (11722064_at) / Fold change /veh REEP3 (11722064_at) / RFU IGLL1 (11728026_x_at) / Fold change /veh IGLL1 (11728026_x_at): dose or concentration left out as unconfirmed
Details: ProbeSet 11719632_a_at; LIST B

## Nc1ccc(-c2cccs2)cc1NC(=O)c1ccc2c(c1)cc(C1CC1)n2CCN1CCOCC1 [ACY-1035]
  Fold change vs veh, ABCC4: 0.87
